Measured values as given in US20240360178A1, “MACROCYCLIC IMMUNOMODULATORS” (Bristol-Myers Squibb Company, priority 2021, published 2024).
Positions of bridges follow the written chain, without caps; N, C: chain ends. Non-standard residues stand in square brackets, D forms with d. Residues, ends and D or L forms follow the SMILES beside them. Bip = N[C@@H](Cc1ccc(-c2ccccc2)cc1)C(=O)O; NMeF = CN[C@@H](Cc1ccccc1)C(=O)O; NMeA = CN[C@@H](C)C(=O)O; Dab = NCC[C@H](N)C(=O)O

Target: T1, human PD-1 (Jurkat-PD-1 cells) / PE-labeled human PD-L1-Ig (Homo sapiens, UniProt Q15116)
T1 construct: expressed in transfected cells; host or cells: Jurkat cell line over-expressing human PD-1
Experiment: Jurkat-PD-1 Cell Binding High-Content Screening Assay (CBA); Jurkat hPD1-PDL1 assay
Conditions: Jurkat cell line over-expressing human PD-1; PE-labeled PD-L1-Ig 20 nM final; compound incubated 2 hours at 37° C.; read-out: Jurkat HPD1-PDL1 IC50
Procedure, shortened: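 Binding of phycoerythrin-conjugated PD-L1-Ig (20 nM final) to PD-1-overexpressing Jurkat cells was read by high-content imaging. Cells in DMEM/10% FCS were exposed to compound for 2 hours at 37° C before labeled ligand was added.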

T1 sequence (Q15116 25-288): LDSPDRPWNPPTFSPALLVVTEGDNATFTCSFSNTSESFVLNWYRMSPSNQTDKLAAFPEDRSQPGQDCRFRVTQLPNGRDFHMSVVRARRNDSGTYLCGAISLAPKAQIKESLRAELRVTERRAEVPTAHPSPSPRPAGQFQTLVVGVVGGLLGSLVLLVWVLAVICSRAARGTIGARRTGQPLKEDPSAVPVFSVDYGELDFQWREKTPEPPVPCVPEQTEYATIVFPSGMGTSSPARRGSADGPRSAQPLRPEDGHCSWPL

IC50 [nM]	SMILES
340	CC(C)C[C@@H]1NC(=O)[C@H](CCCNC(=N)N)NC(=O)[C@H](Cc2ccccc2)N(C)C(=O)[C@H](C)N(C)C(=O)[C@H](CCCNC(=N)N)NC(=O)[C@H](Cc2ccc(-c3ccccc3)cc2)NC(=O)[C@H](C(C)C)NC(=O)[C@H](Cc2c[nH]c3ccccc23)NC(=O)[C@H](CC(=O)O)NC(=O)[C@H](Cc2ccc(O)cc2)NC(=O)[C@H](CC(N)=O)NC(=O)CSC[C@@H](C(=O)NCC(N)=O)NC(=O)[C@H]([C@@H](C)O)NC(=O)[C@H](C(C)C)NC1=O [Example 1310] ({CH2CO}-NYDWV[Bip]R[NMeA][NMeF]RLVTCG-NH2; thioether N-14)
750	CC(C)C[C@@H]1NC(=O)[C@H](CCCNC(=N)N)NC(=O)[C@H](Cc2ccccc2)N(C)C(=O)[C@H](C)N(C)C(=O)[C@H](CCCNC(=N)N)NC(=O)[C@H](Cc2ccc(-c3ccccc3)cc2)NC(=O)[C@H](C(C)C)NC(=O)[C@H](Cc2c[nH]c3ccccc23)NC(=O)[C@H](CC(=O)O)NC(=O)[C@H](Cc2ccc(O)cc2)NC(=O)[C@H](CCC(N)=O)NC(=O)CSC[C@@H](C(=O)NCC(N)=O)NC(=O)[C@H]([C@@H](C)O)NC(=O)[C@H](C(C)C)NC1=O [Example 1311] ({CH2CO}-QYDWV[Bip]R[NMeA][NMeF]RLVTCG-NH2; thioether N-14)
760	CC(C)C[C@@H]1NC(=O)CSC[C@@H](C(=O)NCC(N)=O)NC(=O)[C@H]([C@@H](C)O)NC(=O)[C@H](C(C)C)NC(=O)[C@H](CC(C)C)NC(=O)[C@H](CCCNC(=N)N)NC(=O)[C@H](Cc2ccccc2)N(C)C(=O)[C@H](C)N(C)C(=O)[C@H](CCCNC(=N)N)NC(=O)[C@H](Cc2ccc(-c3ccccc3)cc2)NC(=O)[C@H](C(C)C)NC(=O)[C@H](Cc2c[nH]c3ccccc23)NC(=O)[C@H](CC(=O)O)NC(=O)[C@H](Cc2ccc(O)cc2)NC1=O [Example 1312] ({CH2CO}-LYDWV[Bip]R[NMeA][NMeF]RLVTCG-NH2; thioether N-14)
90	CC(C)C[C@@H]1NC(=O)[C@H](CCN)NC(=O)[C@H](Cc2ccccc2)N(C)C(=O)[C@H](C)N(C)C(=O)[C@H](CCCNC(=N)N)NC(=O)[C@H](Cc2ccc(-c3ccccc3)cc2)NC(=O)[C@H](C(C)C)NC(=O)[C@H](Cc2c[nH]c3ccccc23)NC(=O)[C@H](CC(=O)O)NC(=O)[C@H](Cc2ccc(O)cc2)NC(=O)[C@H](Cc2cnc[nH]2)NC(=O)CSC[C@@H](C(=O)NCC(N)=O)NC(=O)[C@H](CO)NC(=O)[C@H](C(C)C)NC1=O [Example 1314] ({CH2CO}-HYDWV[Bip]R[NMeA][NMeF][Dab]LVSCG-NH2; thioether N-14)
80	CC(C)C[C@@H]1NC(=O)[C@H](CCN)NC(=O)[C@H](Cc2ccccc2)N(C)C(=O)[C@H](C)N(C)C(=O)[C@H](CCCNC(=N)N)NC(=O)[C@H](Cc2ccc(-c3ccccc3)cc2)NC(=O)[C@H](C(C)C)NC(=O)[C@H](Cc2c[nH]c3ccccc23)NC(=O)[C@H](CC(=O)O)NC(=O)[C@H](Cc2ccc(O)cc2)NC(=O)[C@H](Cc2cnc[nH]2)NC(=O)CSC[C@@H](C(=O)N[C@@H](C)C(N)=O)NC(=O)[C@H](CO)NC(=O)[C@H](C(C)C)NC1=O [Example 1316] ({CH2CO}-HYDWV[Bip]R[NMeA][NMeF][Dab]LVSCA-NH2; thioether N-14)
130	CC(C)C[C@@H]1NC(=O)CSC[C@@H](C(=O)N[C@@H](C)C(N)=O)NC(=O)[C@H]([C@@H](C)O)NC(=O)[C@H](C(C)C)NC(=O)[C@H](CC(C)C)NC(=O)[C@H](CCCNC(=N)N)NC(=O)[C@H](Cc2ccccc2)N(C)C(=O)[C@H](C)N(C)C(=O)[C@H](CCCNC(=N)N)NC(=O)[C@H](Cc2ccc(-c3ccccc3)cc2)NC(=O)[C@H](C(C)C)NC(=O)[C@H](Cc2c[nH]c3ccccc23)NC(=O)[C@H](CC(=O)O)NC(=O)[C@H](Cc2ccc(O)cc2)NC1=O [Example 1319] ({CH2CO}-LYDWV[Bip]R[NMeA][NMeF]RLVTCA-NH2; thioether N-14)
110	CC(C)C[C@@H]1NC(=O)[C@H](CCN)NC(=O)[C@H](Cc2ccccc2)N(C)C(=O)[C@H](C)N(C)C(=O)[C@H](CCCNC(=N)N)NC(=O)[C@H](Cc2ccc(-c3ccccc3)cc2)NC(=O)[C@H](C(C)C)NC(=O)[C@H](Cc2c[nH]c3ccccc23)NC(=O)[C@H](CC(=O)O)NC(=O)[C@H](Cc2ccc(O)cc2)NC(=O)[C@H](Cc2cnc[nH]2)NC(=O)CSC[C@@H](C(=O)N[C@@H](C)C(N)=O)NC(=O)[C@H]([C@@H](C)O)NC(=O)[C@H](C(C)C)NC1=O [Example 1321] ({CH2CO}-HYDWV[Bip]R[NMeA][NMeF][Dab]LVTCA-NH2; thioether N-14)

Further lines, the molecule ahead of its results:

SMILES	IC50 [nM]
CC(C)C[C@@H]1NC(=O)[C@H](CCCCN)NC(=O)[C@H](Cc2ccccc2)N(C)C(=O)[C@H](C)N(C)C(=O)[C@H](CCCNC(=N)N)NC(=O)[C@H](Cc2ccc(-c3ccccc3)cc2)NC(=O)[C@H](C(C)C)NC(=O)[C@H](Cc2c[nH]c3ccccc23)NC(=O)[C@H](CC(=O)O)NC(=O)[C@H](Cc2ccc(O)cc2)NC(=O)[C@H](CCC(N)=O)NC(=O)CSC[C@@H](C(=O)NCC(N)=O)NC(=O)[C@H](CO)NC(=O)[C@H](C(C)C)NC1=O [Example 1313] ({CH2CO}-QYDWV[Bip]R[NMeA][NMeF]KLVSCG-NH2; thioether N-14)	240
CC(C)C[C@@H]1NC(=O)[C@H](CCCNC(=N)N)NC(=O)[C@H](Cc2ccccc2)N(C)C(=O)[C@H](CCCNC(=N)N)NC(=O)[C@H](CCCNC(=N)N)NC(=O)[C@H](Cc2ccc(-c3ccccc3)cc2)NC(=O)[C@H](C(C)C)NC(=O)[C@H](Cc2c[nH]c3ccccc23)NC(=O)[C@H](CC(=O)O)NC(=O)[C@H](Cc2ccc(O)cc2)NC(=O)[C@H](Cc2cnc[nH]2)NC(=O)CSC[C@@H](C(=O)NCC(N)=O)NC(=O)[C@H](CO)NC(=O)[C@H](C(C)C)NC1=O [Example 1315] ({CH2CO}-HYDWV[Bip]RR[NMeF]RLVSCG-NH2; thioether N-14)	530
CC(C)C[C@@H]1NC(=O)[C@H](CCCNC(=N)N)NC(=O)[C@H](Cc2ccccc2)N(C)C(=O)[C@H](C)N(C)C(=O)[C@H](CCCNC(=N)N)NC(=O)[C@H](Cc2ccc(-c3ccccc3)cc2)NC(=O)[C@H](C(C)C)NC(=O)[C@H](Cc2c[nH]c3ccccc23)NC(=O)[C@H](CC(=O)O)NC(=O)[C@H](Cc2ccc(O)cc2)NC(=O)[C@H](Cc2cnc[nH]2)NC(=O)CSC[C@@H](C(=O)NCC(N)=O)NC(=O)[C@H]([C@@H](C)O)NC(=O)[C@H](C(C)C)NC1=O [Example 1317] ({CH2CO}-HYDWV[Bip]R[NMeA][NMeF]RLVTCG-NH2; thioether N-14)	60
CC(C)C[C@@H]1NC(=O)[C@H](CCCNC(=N)N)NC(=O)[C@H](Cc2ccccc2)N(C)C(=O)[C@H](C)N(C)C(=O)[C@H](CCCNC(=N)N)NC(=O)[C@H](Cc2ccc(-c3ccccc3)cc2)NC(=O)[C@H](C(C)C)NC(=O)[C@H](Cc2c[nH]c3ccccc23)NC(=O)[C@H](CC(=O)O)NC(=O)[C@H](Cc2ccc(O)cc2)NC(=O)[C@H](CC(N)=O)NC(=O)CSC[C@@H](C(=O)N[C@@H](C)C(N)=O)NC(=O)[C@H]([C@@H](C)O)NC(=O)[C@H](C(C)C)NC1=O [Example 1318] ({CH2CO}-NYDWV[Bip]R[NMeA][NMeF]RLVTCA-NH2; thioether N-14)	380
CC(C)C[C@@H]1NC(=O)[C@H](CCN)NC(=O)[C@H](Cc2ccccc2)N(C)C(=O)[C@H](C)N(C)C(=O)[C@H](CCCNC(=N)N)NC(=O)[C@H](Cc2ccc(-c3ccccc3)cc2)NC(=O)[C@H](C(C)C)NC(=O)[C@H](Cc2c[nH]c3ccccc23)NC(=O)[C@H](CC(=O)O)NC(=O)[C@H](Cc2ccc(O)cc2)NC(=O)[C@H](CC(N)=O)NC(=O)CSC[C@@H](C(=O)N[C@@H](C)C(N)=O)NC(=O)[C@H]([C@@H](C)O)NC(=O)[C@H](C(C)C)NC1=O [Example 1320] ({CH2CO}-NYDWV[Bip]R[NMeA][NMeF][Dab]LVTCA-NH2; thioether N-14)	150
CC(C)C[C@@H]1NC(=O)[C@H](CCN)NC(=O)[C@H](Cc2ccccc2)N(C)C(=O)[C@H](C)N(C)C(=O)[C@H](CCCNC(=N)N)NC(=O)[C@H](Cc2ccc(-c3ccccc3)cc2)NC(=O)[C@H](C(C)C)NC(=O)[C@H](Cc2c[nH]c3ccccc23)NC(=O)[C@H](CC(=O)O)NC(=O)[C@H](Cc2ccc(O)cc2)NC(=O)[C@H](Cc2ccccc2)NC(=O)CSC[C@@H](C(=O)N[C@@H](C)C(N)=O)NC(=O)[C@H]([C@@H](C)O)NC(=O)[C@H](C(C)C)NC1=O [Example 1322] ({CH2CO}-FYDWV[Bip]R[NMeA][NMeF][Dab]LVTCA-NH2; thioether N-14)	120
CC(C)C[C@@H]1NC(=O)[C@H](CCCNC(=N)N)NC(=O)[C@H](Cc2ccccc2)N(C)C(=O)[C@H](C)N(C)C(=O)[C@H](CCCNC(=N)N)NC(=O)[C@H](Cc2ccc(-c3ccccc3)cc2)NC(=O)[C@H](C(C)C)NC(=O)[C@H](Cc2c[nH]c3ccccc23)NC(=O)[C@H](CC(=O)O)NC(=O)[C@H](Cc2ccc(O)cc2)NC(=O)[C@H](CCC(N)=O)NC(=O)CSC[C@@H](C(=O)N[C@@H](C)C(N)=O)NC(=O)[C@H]([C@@H](C)O)NC(=O)[C@H](C(C)C)NC1=O [Example 1323] ({CH2CO}-QYDWV[Bip]R[NMeA][NMeF]RLVTCA-NH2; thioether N-14)	510
CC(C)C[C@@H]1NC(=O)[C@H](CCCNC(=N)N)NC(=O)[C@H](Cc2ccccc2)N(C)C(=O)[C@H](C)N(C)C(=O)[C@H](CCCNC(=N)N)NC(=O)[C@H](Cc2ccc(-c3ccccc3)cc2)NC(=O)[C@H](C(C)C)NC(=O)[C@H](Cc2c[nH]c3ccccc23)NC(=O)[C@H](CC(=O)O)NC(=O)[C@H](Cc2ccc(O)cc2)NC(=O)[C@H](Cc2cnc[nH]2)NC(=O)CSC[C@@H](C(=O)N[C@@H](C)C(N)=O)NC(=O)[C@H]([C@@H](C)O)NC(=O)[C@H](C(C)C)NC1=O [Example 1324] ({CH2CO}-HYDWV[Bip]R[NMeA][NMeF]RLVTCA-NH2; thioether N-14)	270
